Assay results as given in ChEMBL document CHEMBL5291721, “A preclinical secondary pharmacology resource illuminates target-adverse drug reaction associations of marketed drugs” (Nat Commun, 2023).

Experiments:
[1] = target: Neuronal acetylcholine receptor subunit alpha-4 (Homo sapiens, UniProt P43681)
[2] = target: T1, Alpha-2A adrenergic receptor (Homo sapiens, UniProt P08913); type: functional, cell-based
T1 sequence (P08913 whole entry): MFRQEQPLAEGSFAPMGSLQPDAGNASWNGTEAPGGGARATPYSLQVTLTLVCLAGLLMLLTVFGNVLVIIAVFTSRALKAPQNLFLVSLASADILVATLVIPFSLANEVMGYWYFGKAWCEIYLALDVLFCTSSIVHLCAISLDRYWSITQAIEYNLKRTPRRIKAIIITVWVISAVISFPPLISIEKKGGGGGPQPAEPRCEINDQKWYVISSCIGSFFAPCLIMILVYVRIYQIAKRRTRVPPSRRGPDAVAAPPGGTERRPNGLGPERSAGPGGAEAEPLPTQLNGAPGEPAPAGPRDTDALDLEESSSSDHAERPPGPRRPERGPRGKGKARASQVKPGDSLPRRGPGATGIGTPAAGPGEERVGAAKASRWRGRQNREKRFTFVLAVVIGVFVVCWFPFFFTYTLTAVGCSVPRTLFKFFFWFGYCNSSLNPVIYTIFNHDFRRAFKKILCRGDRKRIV

[3] = target: T2, Neuropeptide Y receptor type 1 (Homo sapiens, UniProt P25929)
T2 sequence (P25929 whole entry): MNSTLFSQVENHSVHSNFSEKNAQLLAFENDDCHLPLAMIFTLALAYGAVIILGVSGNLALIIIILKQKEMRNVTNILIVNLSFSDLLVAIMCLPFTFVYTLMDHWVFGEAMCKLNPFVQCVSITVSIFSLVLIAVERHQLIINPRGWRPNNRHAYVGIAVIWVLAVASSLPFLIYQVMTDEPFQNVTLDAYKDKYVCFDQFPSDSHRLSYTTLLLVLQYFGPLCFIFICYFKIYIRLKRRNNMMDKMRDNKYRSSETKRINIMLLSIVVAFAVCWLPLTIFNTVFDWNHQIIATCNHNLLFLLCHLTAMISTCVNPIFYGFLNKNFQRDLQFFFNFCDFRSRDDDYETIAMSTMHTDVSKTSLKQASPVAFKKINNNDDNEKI

[4] = target: Mu-type opioid receptor (Homo sapiens, UniProt P35372); assay: biochemical; type: functional
[5] = target: Adenosine receptor A2a (Homo sapiens, UniProt P29274)
[6] = target: 3',5'-cyclic-AMP phosphodiesterase 4D (Homo sapiens, UniProt Q08499); type: functional
[7] = target: 5-hydroxytryptamine receptor 2B (Homo sapiens, UniProt P41595); type: functional, cell-based
[8] = target: Glutamate receptor ionotropic, NMDA 1 (Rattus norvegicus, UniProt P35439)
[9] = target: Cannabinoid receptor 1 (Homo sapiens, UniProt P21554); type: functional, cell-based
[10] = target: T3, 5-hydroxytryptamine receptor 1A (Homo sapiens, UniProt P08908); type: functional, cell-based
T3 sequence (P08908 whole entry): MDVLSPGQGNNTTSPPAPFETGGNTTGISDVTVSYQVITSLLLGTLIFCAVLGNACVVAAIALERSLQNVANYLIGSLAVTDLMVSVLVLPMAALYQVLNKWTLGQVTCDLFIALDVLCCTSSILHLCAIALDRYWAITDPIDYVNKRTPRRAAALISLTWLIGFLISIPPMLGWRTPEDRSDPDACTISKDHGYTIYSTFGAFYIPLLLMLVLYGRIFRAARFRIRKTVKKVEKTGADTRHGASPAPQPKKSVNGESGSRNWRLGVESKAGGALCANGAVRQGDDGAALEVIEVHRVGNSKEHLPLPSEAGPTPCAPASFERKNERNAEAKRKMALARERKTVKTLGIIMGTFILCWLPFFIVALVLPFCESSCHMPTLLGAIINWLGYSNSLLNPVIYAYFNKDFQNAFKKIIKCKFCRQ

[11] = target: D(3) dopamine receptor (Homo sapiens, UniProt P35462)
[12] = target: D(1A) dopamine receptor (Homo sapiens, UniProt P21728); type: functional, cell-based
[13] = target: T4, Alpha-1A adrenergic receptor (Homo sapiens, UniProt P35348); type: functional, cell-based
T4 sequence (P35348 whole entry): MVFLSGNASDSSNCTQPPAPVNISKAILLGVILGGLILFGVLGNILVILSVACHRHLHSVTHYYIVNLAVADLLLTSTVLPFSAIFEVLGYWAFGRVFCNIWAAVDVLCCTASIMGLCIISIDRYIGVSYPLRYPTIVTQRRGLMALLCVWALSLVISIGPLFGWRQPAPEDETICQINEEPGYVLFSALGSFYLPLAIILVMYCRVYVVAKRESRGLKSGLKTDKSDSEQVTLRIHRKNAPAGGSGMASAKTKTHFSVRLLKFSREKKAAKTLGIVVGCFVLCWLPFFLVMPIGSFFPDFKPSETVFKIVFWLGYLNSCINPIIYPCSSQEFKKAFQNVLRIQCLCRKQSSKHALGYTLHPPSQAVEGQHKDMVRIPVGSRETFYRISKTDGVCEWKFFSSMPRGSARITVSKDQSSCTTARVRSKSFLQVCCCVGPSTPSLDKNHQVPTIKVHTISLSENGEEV
Note: assay procedure not described here.

Mu-type opioid receptor, sequence (P35372 whole entry): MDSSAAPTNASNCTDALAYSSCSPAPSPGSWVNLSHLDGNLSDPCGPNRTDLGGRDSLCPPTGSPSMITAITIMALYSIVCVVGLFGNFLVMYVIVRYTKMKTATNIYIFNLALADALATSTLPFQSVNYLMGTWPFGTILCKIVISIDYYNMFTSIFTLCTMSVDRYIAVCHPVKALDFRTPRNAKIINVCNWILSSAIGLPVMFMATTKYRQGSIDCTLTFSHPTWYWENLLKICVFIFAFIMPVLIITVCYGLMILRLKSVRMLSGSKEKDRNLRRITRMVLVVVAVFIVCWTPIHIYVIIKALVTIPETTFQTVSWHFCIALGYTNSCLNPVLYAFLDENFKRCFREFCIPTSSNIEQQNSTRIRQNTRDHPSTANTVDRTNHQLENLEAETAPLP
3',5'-cyclic-AMP phosphodiesterase 4D, sequence (Q08499 whole entry): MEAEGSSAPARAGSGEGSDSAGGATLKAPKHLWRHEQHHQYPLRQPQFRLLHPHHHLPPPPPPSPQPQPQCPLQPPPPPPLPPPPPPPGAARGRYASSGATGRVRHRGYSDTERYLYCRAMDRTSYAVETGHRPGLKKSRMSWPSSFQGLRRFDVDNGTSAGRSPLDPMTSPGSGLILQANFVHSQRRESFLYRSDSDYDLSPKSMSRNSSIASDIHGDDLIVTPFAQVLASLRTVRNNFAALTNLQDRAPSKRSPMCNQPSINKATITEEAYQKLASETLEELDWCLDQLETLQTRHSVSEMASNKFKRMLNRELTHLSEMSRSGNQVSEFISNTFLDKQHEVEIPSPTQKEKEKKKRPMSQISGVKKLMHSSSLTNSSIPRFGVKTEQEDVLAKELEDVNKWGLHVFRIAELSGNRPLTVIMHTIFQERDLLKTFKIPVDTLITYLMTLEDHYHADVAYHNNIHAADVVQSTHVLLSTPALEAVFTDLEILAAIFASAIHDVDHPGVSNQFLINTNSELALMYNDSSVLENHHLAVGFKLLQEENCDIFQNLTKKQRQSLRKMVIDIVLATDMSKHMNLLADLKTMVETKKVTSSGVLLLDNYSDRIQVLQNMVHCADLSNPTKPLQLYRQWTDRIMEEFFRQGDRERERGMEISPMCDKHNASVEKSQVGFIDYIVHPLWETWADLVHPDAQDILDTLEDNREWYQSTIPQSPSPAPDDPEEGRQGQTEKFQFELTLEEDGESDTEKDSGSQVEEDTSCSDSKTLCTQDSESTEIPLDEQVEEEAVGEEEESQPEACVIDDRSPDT
Neuronal acetylcholine receptor subunit alpha-4, sequence (P43681 whole entry): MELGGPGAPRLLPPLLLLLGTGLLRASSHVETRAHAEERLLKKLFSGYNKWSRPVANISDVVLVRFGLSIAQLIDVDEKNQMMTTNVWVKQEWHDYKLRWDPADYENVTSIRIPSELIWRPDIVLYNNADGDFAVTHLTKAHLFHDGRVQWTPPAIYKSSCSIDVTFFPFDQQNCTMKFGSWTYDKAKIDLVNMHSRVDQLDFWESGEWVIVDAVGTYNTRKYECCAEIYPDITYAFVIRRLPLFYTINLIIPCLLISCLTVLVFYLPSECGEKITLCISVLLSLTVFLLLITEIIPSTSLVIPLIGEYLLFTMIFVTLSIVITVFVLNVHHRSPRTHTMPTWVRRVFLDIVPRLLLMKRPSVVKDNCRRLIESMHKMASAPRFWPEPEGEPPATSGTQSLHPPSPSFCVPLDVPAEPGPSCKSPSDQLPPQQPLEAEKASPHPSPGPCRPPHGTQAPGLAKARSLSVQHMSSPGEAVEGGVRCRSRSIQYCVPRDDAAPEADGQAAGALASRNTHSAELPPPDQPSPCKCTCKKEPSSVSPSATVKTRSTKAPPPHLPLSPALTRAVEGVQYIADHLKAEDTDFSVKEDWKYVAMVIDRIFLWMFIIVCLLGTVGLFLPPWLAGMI
D(3) dopamine receptor, sequence (P35462 whole entry): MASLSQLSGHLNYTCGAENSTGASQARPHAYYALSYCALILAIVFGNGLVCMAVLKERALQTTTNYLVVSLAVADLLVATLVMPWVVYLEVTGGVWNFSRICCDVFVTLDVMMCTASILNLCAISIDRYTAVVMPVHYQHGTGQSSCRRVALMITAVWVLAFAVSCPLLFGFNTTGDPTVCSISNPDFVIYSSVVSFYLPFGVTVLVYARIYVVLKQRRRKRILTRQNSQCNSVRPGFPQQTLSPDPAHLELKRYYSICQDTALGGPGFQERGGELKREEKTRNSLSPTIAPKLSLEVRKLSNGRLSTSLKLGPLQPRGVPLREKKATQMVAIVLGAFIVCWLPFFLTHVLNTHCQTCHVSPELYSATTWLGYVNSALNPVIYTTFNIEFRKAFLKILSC
Cannabinoid receptor 1, sequence (P21554 whole entry): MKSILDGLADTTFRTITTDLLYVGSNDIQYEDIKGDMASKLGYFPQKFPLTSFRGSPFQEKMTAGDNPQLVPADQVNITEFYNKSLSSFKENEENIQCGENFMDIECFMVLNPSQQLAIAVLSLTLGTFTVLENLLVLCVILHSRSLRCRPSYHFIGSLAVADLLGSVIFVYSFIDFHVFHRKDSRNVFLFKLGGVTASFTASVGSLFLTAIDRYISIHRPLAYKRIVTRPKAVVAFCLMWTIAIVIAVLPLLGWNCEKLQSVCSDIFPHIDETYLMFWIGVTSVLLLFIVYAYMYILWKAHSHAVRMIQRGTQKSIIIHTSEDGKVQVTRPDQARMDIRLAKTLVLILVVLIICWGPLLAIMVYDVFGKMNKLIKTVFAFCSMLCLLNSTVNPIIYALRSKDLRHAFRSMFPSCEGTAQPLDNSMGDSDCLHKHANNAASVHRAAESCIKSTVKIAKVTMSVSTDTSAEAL
Adenosine receptor A2a, sequence (P29274 whole entry): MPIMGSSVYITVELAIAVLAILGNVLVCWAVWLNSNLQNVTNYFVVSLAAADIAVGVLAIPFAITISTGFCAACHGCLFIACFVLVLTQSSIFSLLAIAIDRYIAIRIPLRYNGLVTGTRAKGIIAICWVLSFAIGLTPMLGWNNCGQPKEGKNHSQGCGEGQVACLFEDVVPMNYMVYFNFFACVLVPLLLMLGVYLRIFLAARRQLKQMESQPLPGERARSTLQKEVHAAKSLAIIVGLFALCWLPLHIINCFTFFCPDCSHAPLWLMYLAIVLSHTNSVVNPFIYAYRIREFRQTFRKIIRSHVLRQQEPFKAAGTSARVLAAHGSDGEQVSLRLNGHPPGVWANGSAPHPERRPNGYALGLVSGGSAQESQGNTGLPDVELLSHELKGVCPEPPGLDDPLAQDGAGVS
5-hydroxytryptamine receptor 2B, sequence (P41595 whole entry): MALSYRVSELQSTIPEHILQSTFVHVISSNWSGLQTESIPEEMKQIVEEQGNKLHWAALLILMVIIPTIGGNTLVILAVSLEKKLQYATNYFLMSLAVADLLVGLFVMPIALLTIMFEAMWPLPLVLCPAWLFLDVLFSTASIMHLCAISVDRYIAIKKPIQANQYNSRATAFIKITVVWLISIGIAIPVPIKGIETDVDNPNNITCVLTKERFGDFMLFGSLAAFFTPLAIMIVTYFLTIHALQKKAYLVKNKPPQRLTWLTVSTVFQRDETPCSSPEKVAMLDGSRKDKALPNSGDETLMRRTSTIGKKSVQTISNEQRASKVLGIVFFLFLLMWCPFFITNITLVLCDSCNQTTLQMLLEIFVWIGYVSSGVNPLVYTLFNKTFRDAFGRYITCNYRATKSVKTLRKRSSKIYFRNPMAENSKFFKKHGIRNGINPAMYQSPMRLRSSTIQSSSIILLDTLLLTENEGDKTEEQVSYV
D(1A) dopamine receptor, sequence (P21728 whole entry): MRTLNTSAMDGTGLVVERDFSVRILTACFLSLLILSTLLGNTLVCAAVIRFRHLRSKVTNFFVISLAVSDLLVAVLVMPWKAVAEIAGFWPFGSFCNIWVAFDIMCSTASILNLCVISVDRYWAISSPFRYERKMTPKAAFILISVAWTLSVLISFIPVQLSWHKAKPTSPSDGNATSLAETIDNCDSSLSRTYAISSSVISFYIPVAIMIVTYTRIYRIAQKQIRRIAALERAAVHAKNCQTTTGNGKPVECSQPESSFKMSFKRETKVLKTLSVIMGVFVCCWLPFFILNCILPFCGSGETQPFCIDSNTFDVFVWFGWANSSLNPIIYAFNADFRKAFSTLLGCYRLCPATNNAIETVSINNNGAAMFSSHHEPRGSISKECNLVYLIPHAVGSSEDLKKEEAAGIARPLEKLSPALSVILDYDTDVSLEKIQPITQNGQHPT

Molecule | AC50 [1] [µM] | AC50 [2] [µM] | AC50 [3] [µM] | AC50 [4] [µM] | AC50 [5] [µM] | AC50 [6] [µM] | AC50 [7] [µM] | AC50 [8] [µM] | AC50 [9] [µM] | AC50 [10] [µM] | AC50 [11] [µM] | AC50 [12] [µM] | AC50 [13] [µM]
C=C[C@@]1(C)CC(=O)[C@]2(O)[C@@]3(C)[C@@H](O)CCC(C)(C)[C@@H]3[C@H](OC(=O)CCN(C)C)[C@H](OC(C)=O)[C@@]2(C)O1 | > 30 | > 30 | > 30 | > 30 | > 30 | > 30 | > 30 | > 30 | > 30 | > 30 | > 30 |  | 
NCCCC(O)(P(=O)(O)O)P(=O)(O)O [ALENDRONIC ACID] | > 10 | > 10 | > 30 |  | > 30 | > 30 |  | > 10 |  | > 10 |  |  | 
Nc1ccc(C(=O)O)c(O)c1 [AMINOSALICYLIC ACID] | > 30 | > 30 | > 30 | > 30 | > 30 | > 30 | > 30 | > 30 | > 30 | > 30 | > 30 | > 30 | > 30
NS(=O)(=O)c1cc2c(cc1C(F)(F)F)NC(Cc1ccccc1)NS2(=O)=O (stereo unspecified) [BENDROFLUMETHIAZIDE] | > 10 | > 10 | > 10 |  | > 10 | > 30 | > 10 | > 10 |  | > 10 | > 30 | > 10 | 
CCCCCCNC(=O)n1cc(F)c(=O)[nH]c1=O [CARMOFUR] | > 30 | > 30 | > 30 | > 30 | > 30 | > 30 | > 30 | > 30 |  | > 30 | > 30 | > 30 | 
COCCOC(=O)C1=C(C)NC(C)=C(C(=O)OC/C=C/c2ccccc2)C1c1cccc([N+](=O)[O-])c1 (stereo unspecified) [CILNIDIPINE] | > 30 |  | > 30 | > 30 | > 30 | 8.2 | > 30 | > 30 | > 30 | > 30 | > 30 | > 30 | 
COc1cccc2c1C(=O)c1c(O)c3c(c(O)c1C2=O)C[C@@](O)(C(C)=O)C[C@@H]3O[C@H]1C[C@H](N)[C@H](O)[C@H](C)O1 [DAUNORUBICIN] | 10.8 |  | > 10 | > 30 | 30 | 22 |  | > 30 |  |  | 17.9 | > 30 | 
N[C@H](Cc1cc(I)c(Oc2cc(I)c(O)c(I)c2)c(I)c1)C(=O)O [DEXTROTHYROXINE] | > 10 | > 10 | > 30 |  | > 30 | 0.26 | 26 | > 10 | > 30 | > 10 | > 10 | > 10 | > 30
C[C@@H]1C[C@H]2[C@@H]3C[C@H](F)C4=CC(=O)C=C[C@]4(C)[C@@]3(F)[C@@H](O)C[C@]2(C)[C@H]1C(=O)CO [DIFLUCORTOLONE] |  |  |  |  |  | > 30 | 18 |  |  |  | > 30 |  | 
CC1(C)C(/C=C/C=C/C=C/C=C2\N(CCCCS(=O)(=O)O)c3ccc4ccccc4c3C2(C)C)=[N+](CCCCS(=O)(=O)[O-])c2ccc3ccccc3c21 [INDOCYANINE GREEN ACID FORM] | > 30 | > 30 | > 30 |  | > 30 | 2.3 |  | > 30 |  | > 30 | 8.7 |  | 
O=C1Nc2ccc(Cl)cc2C(c2ccccc2)=NC1O (stereo unspecified) [OXAZEPAM] | > 10 | > 10 | > 30 |  | > 30 | > 10 | > 10 | > 10 | > 30 | > 10 | > 10 | > 10 | > 30
CC[N+]1(C)CCCC(OC(=O)C(O)(c2ccccc2)c2ccccc2)C1 (stereo unspecified) [PIPENZOLATE] | > 30 | > 30 | > 30 | > 30 | > 30 | > 30 | > 30 | > 30 | > 30 | > 30 | > 30 | > 30 | 
C[n+]1ccccc1/C=N/O [PRALIDOXIME] |  | > 30 |  | > 30 |  | 24 | > 30 | > 30 | > 30 |  | > 30 | > 30 | > 30
CN1CCN(c2c(F)cc3c(=O)c(C(=O)O)cn4c3c2SCC4)CC1 [RUFLOXACIN] | > 30 | > 30 | > 30 | > 30 | > 30 | > 30 |  | > 30 | > 30 | > 30 | > 30 | > 30 | > 30
CC(C)CC(N(C)C)C1(c2ccc(Cl)cc2)CCC1 (stereo unspecified) [SIBUTRAMINE] | > 10 | 30 | > 30 | > 30 | > 30 | > 30 |  | > 10 | > 30 | > 30 | > 10 | > 10 | > 30
COc1cc2nccc(Oc3ccc(NC(=O)Nc4cc(C)on4)c(Cl)c3)c2cc1OC [TIVOZANIB] | > 3 |  |  |  | > 3 | 27 |  |  |  |  |  |  | 19
CN1[C@@H]2CC[C@H]1C[C@@H](OC(=O)c1c[nH]c3ccccc13)C2 [TROPISETRON] | 5.2 | > 30 | > 30 | > 30 | > 30 | > 30 | 15 |  | > 30 | > 30 | > 30 | > 30 | > 30
COc1ccc(C(CN(C)C)C2(O)CCCCC2)cc1 (stereo unspecified) [VENLAFAXINE] | > 10 | > 10 | > 30 |  | > 30 | > 10 |  | > 10 |  | > 30 |  | > 30 | > 30
COLISTIN |  | > 30 |  | > 30 |  | > 30 | > 30 | > 30 | > 30 | > 30 | > 30 | > 30 | > 30
